Data taken from patent US20150307520A1, “NOVEL HETEROARYL AND HETEROCYCLE COMPOUNDS, COMPOSITIONS AND METHODS THEREOF” (HUTCHISON MEDIPHARMA LIMITED, priority 2012, published 2015).

What was measured:
Format in all cases: biochemical
p110α/p85α = p110α/p85α (Homo sapiens, UniProt P42336); assay: Transcreener KINASE Assay, kinase inhibition of p110α/p85α; settings: for PI3Kα IH % @ 1 uM: 1 uM test compound
Description: PI3K kinases including p110α/p85α, p110δ/p85α and p110γ are purchased from Invitrogen, and p110β/p85α is from Millipore.
Primary screening data and IC50 values are measured using Transcreener™ KINASE Assay (Bellbrook, Catalog #3003-10K). […] It is a universal, homogenous, high throughput screening (HTS) technology using a far-red, competitive fluorescence polarization immunoassay based on the detection of ADP to monitor the activity of enzymes that catalyze group transfer reactions. Briefly, the Transcreener KINASE Assay is designed as a simple two-part, endpoint assay.
In the first step, the 25 ul kinase reaction is performed by preparing a reaction mixture containing 5 ul test compound (2% DMSO final concentration), 10 ul kinase, buffer (50 mM HEPES, 100 mM NaCl, 1 mM EGTA, 0.03% CHAPS, 3 mM MgCl2, and freshly supplemented 1 mM DTT), and 10 ul 30 uM PIP2/10 uM ATP. The plate is sealed and incubated for 80 min at room temperature. Next, 25 ul ADP detection mix is added per well. The plate is sealed again and incubated for 60 min at room temperature, and then measure fluorescence polarization by Tecan Infinite F500 Reader.
Data is analyzed and IC50s are generated using the add-in software for Microsoft Excel, Xlfit™ (version 2.0). IH %=(ADP amount under 2% DMSO-ADP amount under test compound)/ADP amount under 2% DMSO.

p110β/p85α = p110β/p85α (Homo sapiens, UniProt P42338); assay: Transcreener KINASE Assay, kinase inhibition of p110β/p85α; settings: for PI3Kβ IH % @ 1 uM: 1 uM test compound; for IC50: read-out: PI3Kβ IC50
Outline: (§1)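 Kinase reactions run 80 min at room temperature, pH buffered with 50 mM HEPES plus 3 mM MgCl2 and 0.03% CHAPS; the PIP2/ATP mix added was 30 uM/10 uM. Generated ADP is then read by FP immunoassay.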

p110δ/p85α = p110δ/p85α (Homo sapiens, UniProt O00329); assay: Transcreener KINASE Assay, kinase inhibition of p110δ/p85α; settings: for PI3Kδ IH % @ 1 uM: 1 uM test compound; for IC50: read-out: PI3Kδ IC50
Outline: as §1

p110γ = p110γ (Homo sapiens, UniProt P48736); assay: Transcreener KINASE Assay, kinase inhibition of p110γ; settings: for PI3Kγ IH % @ 1 uM: 1 uM test compound; for IC50: read-out: PI3Kγ IC50
Outline: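 Steps: enzyme reaction with compound, 80 min at room temperature; add ADP detection reagent, incubate 60 min at room temperature; read fluorescence polarization. Inhibition and IC50 values are derived from the ADP signal.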

Chain of p110β/p85α (P42338 whole entry): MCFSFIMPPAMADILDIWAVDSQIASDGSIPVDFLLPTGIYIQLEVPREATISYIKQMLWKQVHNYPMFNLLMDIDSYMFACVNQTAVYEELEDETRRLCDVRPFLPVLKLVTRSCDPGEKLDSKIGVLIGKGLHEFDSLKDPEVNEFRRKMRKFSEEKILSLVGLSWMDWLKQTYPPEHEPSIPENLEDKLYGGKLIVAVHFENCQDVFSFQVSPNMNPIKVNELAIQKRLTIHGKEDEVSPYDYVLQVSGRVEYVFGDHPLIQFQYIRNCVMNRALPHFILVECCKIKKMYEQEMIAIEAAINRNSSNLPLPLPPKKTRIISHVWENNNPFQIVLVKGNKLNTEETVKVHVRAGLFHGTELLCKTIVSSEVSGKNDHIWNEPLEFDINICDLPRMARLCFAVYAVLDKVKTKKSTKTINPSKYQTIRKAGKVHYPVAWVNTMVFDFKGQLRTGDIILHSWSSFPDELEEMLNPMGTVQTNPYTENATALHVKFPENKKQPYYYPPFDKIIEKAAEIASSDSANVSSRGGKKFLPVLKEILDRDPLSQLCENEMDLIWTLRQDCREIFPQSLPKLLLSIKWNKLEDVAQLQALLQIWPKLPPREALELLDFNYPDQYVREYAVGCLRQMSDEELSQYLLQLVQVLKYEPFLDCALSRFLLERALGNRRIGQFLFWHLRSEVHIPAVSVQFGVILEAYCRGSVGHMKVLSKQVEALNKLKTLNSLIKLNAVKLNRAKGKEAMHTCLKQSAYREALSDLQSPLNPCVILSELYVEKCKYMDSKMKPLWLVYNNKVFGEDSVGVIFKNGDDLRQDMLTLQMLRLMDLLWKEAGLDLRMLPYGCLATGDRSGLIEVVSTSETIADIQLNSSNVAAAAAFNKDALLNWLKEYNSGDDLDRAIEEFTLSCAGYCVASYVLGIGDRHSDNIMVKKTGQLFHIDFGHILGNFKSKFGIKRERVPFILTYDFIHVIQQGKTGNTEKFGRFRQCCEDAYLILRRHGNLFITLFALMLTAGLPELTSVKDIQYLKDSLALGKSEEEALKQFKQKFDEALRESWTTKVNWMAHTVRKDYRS
Chain of p110β/p85α (P27986 2-724 partner): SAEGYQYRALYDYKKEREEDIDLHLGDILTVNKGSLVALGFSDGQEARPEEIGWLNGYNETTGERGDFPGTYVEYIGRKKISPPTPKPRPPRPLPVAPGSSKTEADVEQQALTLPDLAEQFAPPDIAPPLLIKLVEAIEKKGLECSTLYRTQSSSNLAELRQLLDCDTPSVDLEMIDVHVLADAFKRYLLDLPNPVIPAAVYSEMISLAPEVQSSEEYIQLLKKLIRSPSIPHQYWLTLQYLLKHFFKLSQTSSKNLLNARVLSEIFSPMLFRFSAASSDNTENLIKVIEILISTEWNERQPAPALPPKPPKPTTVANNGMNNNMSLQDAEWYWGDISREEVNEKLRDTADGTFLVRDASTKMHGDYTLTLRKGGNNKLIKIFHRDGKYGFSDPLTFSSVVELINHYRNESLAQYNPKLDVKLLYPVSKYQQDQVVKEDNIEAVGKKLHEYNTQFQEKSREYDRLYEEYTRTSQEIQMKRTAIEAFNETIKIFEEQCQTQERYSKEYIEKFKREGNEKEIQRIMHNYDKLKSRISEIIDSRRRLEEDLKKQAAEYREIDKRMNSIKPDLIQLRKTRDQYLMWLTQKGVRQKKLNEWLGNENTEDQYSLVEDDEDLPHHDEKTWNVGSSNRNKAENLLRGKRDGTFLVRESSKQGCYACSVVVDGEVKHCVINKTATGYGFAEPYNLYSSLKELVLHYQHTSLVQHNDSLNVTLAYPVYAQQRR
Chain of p110γ (P48736 whole entry): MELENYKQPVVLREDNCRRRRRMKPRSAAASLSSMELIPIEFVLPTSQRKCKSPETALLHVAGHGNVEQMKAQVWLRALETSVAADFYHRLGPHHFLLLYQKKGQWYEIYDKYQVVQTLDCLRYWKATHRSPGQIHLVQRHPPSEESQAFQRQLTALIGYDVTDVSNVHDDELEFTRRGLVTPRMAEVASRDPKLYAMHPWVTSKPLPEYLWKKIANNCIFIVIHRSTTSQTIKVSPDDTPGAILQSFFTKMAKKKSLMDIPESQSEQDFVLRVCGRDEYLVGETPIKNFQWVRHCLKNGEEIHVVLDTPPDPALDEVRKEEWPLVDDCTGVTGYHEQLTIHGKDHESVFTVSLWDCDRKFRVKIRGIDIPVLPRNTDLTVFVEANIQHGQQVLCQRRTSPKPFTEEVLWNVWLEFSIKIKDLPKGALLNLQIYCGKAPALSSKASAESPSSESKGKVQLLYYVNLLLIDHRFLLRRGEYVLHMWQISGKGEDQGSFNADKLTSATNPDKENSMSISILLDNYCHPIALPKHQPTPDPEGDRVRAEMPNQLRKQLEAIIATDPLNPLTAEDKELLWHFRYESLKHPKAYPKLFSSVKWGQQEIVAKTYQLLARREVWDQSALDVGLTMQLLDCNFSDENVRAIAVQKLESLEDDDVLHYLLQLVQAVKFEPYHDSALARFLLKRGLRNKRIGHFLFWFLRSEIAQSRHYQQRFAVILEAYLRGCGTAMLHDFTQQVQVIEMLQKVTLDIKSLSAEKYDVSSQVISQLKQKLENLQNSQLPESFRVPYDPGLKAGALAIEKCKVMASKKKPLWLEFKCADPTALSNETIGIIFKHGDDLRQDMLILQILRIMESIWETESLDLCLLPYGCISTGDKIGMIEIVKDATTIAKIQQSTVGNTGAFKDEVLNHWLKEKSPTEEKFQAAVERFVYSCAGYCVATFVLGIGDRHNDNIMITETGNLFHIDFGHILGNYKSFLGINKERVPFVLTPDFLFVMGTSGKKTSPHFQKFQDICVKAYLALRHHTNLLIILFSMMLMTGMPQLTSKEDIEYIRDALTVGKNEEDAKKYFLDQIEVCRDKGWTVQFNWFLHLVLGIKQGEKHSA
Chain of p110α/p85α (P42336 whole entry): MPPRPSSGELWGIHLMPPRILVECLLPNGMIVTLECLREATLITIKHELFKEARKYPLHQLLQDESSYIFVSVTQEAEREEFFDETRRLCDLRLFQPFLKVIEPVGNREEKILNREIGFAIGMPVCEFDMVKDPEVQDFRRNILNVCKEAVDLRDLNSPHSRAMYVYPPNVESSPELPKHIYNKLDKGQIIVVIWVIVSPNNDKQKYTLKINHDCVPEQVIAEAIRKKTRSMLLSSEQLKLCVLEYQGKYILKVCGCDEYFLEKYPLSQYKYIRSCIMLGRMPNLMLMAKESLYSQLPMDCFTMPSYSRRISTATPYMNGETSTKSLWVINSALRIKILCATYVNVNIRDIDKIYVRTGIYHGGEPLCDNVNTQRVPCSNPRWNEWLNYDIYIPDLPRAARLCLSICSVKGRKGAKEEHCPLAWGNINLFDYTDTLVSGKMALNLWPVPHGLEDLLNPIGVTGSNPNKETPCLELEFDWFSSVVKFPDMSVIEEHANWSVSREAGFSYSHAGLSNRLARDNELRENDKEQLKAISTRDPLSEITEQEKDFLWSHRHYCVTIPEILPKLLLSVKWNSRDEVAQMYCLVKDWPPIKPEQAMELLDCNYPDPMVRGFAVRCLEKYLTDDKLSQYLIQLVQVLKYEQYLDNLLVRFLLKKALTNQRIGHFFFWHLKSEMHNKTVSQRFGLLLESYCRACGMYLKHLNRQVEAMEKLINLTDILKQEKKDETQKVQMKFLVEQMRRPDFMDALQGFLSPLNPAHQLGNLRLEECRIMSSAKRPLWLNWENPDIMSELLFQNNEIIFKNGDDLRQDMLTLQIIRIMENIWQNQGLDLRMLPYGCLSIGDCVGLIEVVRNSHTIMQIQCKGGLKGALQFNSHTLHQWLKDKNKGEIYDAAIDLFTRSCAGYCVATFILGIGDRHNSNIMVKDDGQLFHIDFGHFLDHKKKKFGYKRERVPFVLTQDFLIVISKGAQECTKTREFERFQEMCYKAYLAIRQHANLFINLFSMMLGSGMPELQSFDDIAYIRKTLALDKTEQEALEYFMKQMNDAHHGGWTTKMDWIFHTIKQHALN
Chain of p110α/p85α (P27986 whole entry partner): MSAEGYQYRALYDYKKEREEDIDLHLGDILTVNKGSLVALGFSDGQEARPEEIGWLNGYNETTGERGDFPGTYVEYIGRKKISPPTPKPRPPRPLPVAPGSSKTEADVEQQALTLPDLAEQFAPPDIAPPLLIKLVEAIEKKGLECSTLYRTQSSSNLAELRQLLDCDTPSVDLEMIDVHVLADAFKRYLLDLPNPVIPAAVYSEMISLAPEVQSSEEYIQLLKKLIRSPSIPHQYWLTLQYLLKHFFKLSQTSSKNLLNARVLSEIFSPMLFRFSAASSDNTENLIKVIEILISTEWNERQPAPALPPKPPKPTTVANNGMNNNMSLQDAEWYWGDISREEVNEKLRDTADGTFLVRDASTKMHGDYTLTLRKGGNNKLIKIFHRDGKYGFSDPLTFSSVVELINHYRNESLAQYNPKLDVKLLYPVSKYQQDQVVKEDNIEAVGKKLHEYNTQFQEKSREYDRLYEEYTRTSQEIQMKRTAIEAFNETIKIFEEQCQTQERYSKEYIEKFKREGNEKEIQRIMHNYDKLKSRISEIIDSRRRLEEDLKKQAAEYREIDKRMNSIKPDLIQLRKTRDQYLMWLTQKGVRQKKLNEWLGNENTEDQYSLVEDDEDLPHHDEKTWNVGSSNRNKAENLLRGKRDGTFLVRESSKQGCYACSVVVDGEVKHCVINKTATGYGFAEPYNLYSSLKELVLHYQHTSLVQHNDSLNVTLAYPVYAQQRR

SMILES	PI3Kα IH % @ 1 uM (p110α/p85α)	PI3Kβ IH % @ 1 uM (p110β/p85α)	IC50 (p110β/p85α)	PI3Kδ IH % @ 1 uM (p110δ/p85α)	IC50 (p110δ/p85α)	PI3Kγ IH % @ 1 uM (p110γ)	IC50 (p110γ)	IC50 (p110α/p85α; read-out: PI3Kα IC50)
O=c1c2c(Cl)ccn2nc([C@@H]2C[C@H](F)CN2c2ncnc3[nH]cnc23)n1-c1ccccc1 [Compound 73, 5-chloro-2-((2S,4S)-4-fluoro-1-(9H-purin-6-yl)pyrrolidin-2-yl)-3-phenylpyrrolo[2,1-f][1,2,4]triazin-4(3H)-one]	33.6%	69.5%	420 nM	>100%	3 nM	92.7%		
CC(Nc1nc(N)ncc1C(F)(F)F)c1cn2ccc(Cl)c2c(=O)n1-c1cccc(F)c1 (centres unmarked) [Compound 84]	−3.5%	59.3%		>100%	4 nM	75.9%	32 nM	
CCC(Nc1ncnc2[nH]cnc12)c1cn2ccc(Cl)c2c(=O)n1-c1cccc(F)c1 (centres unmarked) [Compound 85, 3-(1-(9H-purin-6-ylamino)propyl)-8-chloro-2-(3-fluorophenyl)pyrrolo[1,2-a]pyrazin-1(2H)-one]	27.4%	74.7%	311 nM	>100%	1 nM	87.8%	30 nM	
CCC(Nc1ncnc(N)c1C#N)c1cn2ccc(Cl)c2c(=O)n1-c1cccc(F)c1 (centres unmarked) [Compound 86]	17.8%	86.5%	172 nM	99.0%	2 nM	76.4%	139 nM	
Cc1ccn2cc(C(C)Nc3ncnc4[nH]cc(C#N)c34)n(-c3ccccc3)c(=O)c12 (centres unmarked) [Compound 91]	48.3%	78.3%	222 nM	>100%	5 nM	93.5%	34 nM	
Cc1ccn2cc(C(C)Nc3ncnc4[nH]cnc34)n(-c3ccccc3)c(=O)c12 (centres unmarked) [Compound 92]	31.8%	65.2%		>100%	3 nM	95.7%	20 nM	
Nc1ccc(-c2c[nH]c3ncnc(N4CC[C@H]4c4nn5ccc(Cl)c5c(=O)n4-c4ccccc4)c23)cn1 [Compound 101]	47.8%	81.6%	138 nM	>100%	3 nM	>100%		
CC(Nc1ncnc2[nH]cnc12)c1cc2ccc(Cl)n2c(=O)n1-c1cccc(F)c1 (centres unmarked) [Compound 127]	7.0%	71.3%	307 nM	99.2%	5 nM	>100%	57 nM	
CC(Nc1ncnc2[nH]cc(C#N)c12)c1cc2ccc(Cl)n2c(=O)n1-c1cccc(F)c1 (centres unmarked) [Compound 128]	40.3%	87.8%	86 nM	99.0%	1 nM	96.2%	10 nM	
C[S+]([O-])c1c[nH]c2ncnc(N3CCC[C@H]3c3nn4ccc(Cl)c4c(=O)n3-c3ccccc3)c12 (some centres unmarked) [Compound 186]	28.4%	>100%	284 nM	>100%	1 nM	>100%	10 nM	
C[S+]([O-])c1c[nH]c2ncnc(N3CCC[C@H]3c3nn4ccc(Cl)c4c(=O)n3-c3ccccc3)c12 (some centres unmarked) [Compound 187]	14.1%	84.4%		99.0%	1 nM	>100%		
C[S+]([O-])c1c[nH]c2ncnc(N3CCC[C@H]3c3nn4ccc(Cl)c4c(=O)n3-c3ccccc3)c12 (some centres unmarked) [Compound 188]	14.7%	68.7%		98.8%		>100%		
Cc1ccn2nc([C@@H]3CCCN3c3ncnc(N)c3C#N)n(-c3ccccc3)c(=O)c12 [Compound 189, (S)-4-amino-6-(2-(5-methyl-4-oxo-3-phenyl-3,4-dihydropyrrolo[2,1-f][1,2,4]triazin-2-yl)pyrrolidin-1-yl)pyrimidine-5-carbonitrile]	54.0%	87.0%	87 nM	97.5%	1 nM	89.2%	15 nM	
C[S+]([O-])c1c[nH]c2ncnc(N3CCC[C@H]3c3nn4ccc(Cl)c4c(=O)n3-c3ccccc3)c12 (some centres unmarked) [Compound 197]	28.4%	>100%	284 nM	>100%	1 nM	>100%	10 nM	
C[S+]([O-])c1c[nH]c2ncnc(N3CCC[C@H]3c3nn4ccc(Cl)c4c(=O)n3-c3cccc(F)c3)c12 (some centres unmarked) [Compound 198]	17.4%	82.4%	323 nM	>100%	1 nM	>100%	10 nM	
CC(=O)c1cnc(N)nc1N1C[C@H](C)[C@H]1c1nn2ccc(Cl)c2c(=O)n1-c1ccc(F)cc1 [Compound 206]		>100%	181 nM	94%	7 nM	>100%	1 nM	372 nM
N#Cc1c[nH]c2ncnc(N3C[C@@H](F)C[C@H]3c3nn4ccc(Cl)c4c(=O)n3-c3cccc(F)c3)c12 [Compound 213]	65.2%	85.9%	88 nM	>100%	1 nM	>100%	7 nM	
